Experimental data from patent US20230225991A1, “COMPOUNDS FOR USE IN THE TREATMENT OF ACUTE INTERMITTENT PORPHYRIA” (VESTLANDETS INNOVASJONSSELSKAP AS, priority 2019, published 2023).
In brackets after ≈: the same amount, converted by molar mass.

What was measured:
[1] = molecular target: T1, HMBS (Homo sapiens, UniProt P08397); experiment: Octet RED KD determination (Example 21); type: binding; design: Full-length HMBS was cloned into pET-28a(+)-TEV vector and transformed into BL21 (DE3) cells for expression; 6xHis (N, cleaved yes); TEV protease cleavage site (N, cleaved yes); made in house; host or cells: E. coli BL21 (DE3); conditions: steady state analysis, 6.25 to 500 μM, PBS-P+ 5% DMSO
T1 sequence (P08397 1-361): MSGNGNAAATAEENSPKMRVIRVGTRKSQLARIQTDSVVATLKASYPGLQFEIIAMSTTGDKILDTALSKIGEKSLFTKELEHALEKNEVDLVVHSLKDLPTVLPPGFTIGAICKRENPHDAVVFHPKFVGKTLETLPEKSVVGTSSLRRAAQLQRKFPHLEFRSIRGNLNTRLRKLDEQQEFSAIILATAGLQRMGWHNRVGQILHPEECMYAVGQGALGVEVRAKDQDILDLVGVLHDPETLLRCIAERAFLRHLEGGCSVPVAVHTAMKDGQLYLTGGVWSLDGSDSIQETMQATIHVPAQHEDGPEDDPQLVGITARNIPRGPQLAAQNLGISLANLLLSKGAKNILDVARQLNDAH
Procedure: Octet RED (Forte Bio) was used for screening binding and determining the KD values of various compounds. OctetRED is based on the technique called Bio-layer interferometry (BLI). It measures changes in an interference pattern generated from visible light reflected from an optical layer and a biolayer containing proteins of interest. In the assay the target protein is biotinylated and coupled as a layer on the optic probe (Super Strepavidin). The concentration series was from 6.25 to 500 μM.
For the analysis method of KD determination, steady state analysis was used, where the response from steady state of the association phase was used for determining the binding curve for the analyte. Buffer for the analysis was selected to PBS-P+5% DMSO.

[2] = Solubility in DMSO and in buffer (Table 5); type: physicochemical; conditions: for Soluble in DMSO (100%): 100% DMSO; for solubility: aqueous buffer, numeric values; for solubility / Solubility in buffer: buffer; for Solubility in buffer: stated in words
[3] = molecular target: T2, WT-HMBS (Homo sapiens, UniProt P08397); experiment: Octet RED96 KD determination (Example 22); type: binding; conditions: PBS-P+ 5% DMSO; for Binding: Octet RED96, 3.1 to 150 μM; for Kd: Octet RED96, steady state, sigmoidal fitting, 3.1 to 150 μM
T2 construct: Full-length HMBS was cloned into pET-28a(+)-TEV vector and transformed into BL21 (DE3) cells for expression; 6xHis (N, cleaved yes); TEV protease cleavage site (N, cleaved yes); made in house; host or cells: E. coli BL21 (DE3)
T2 sequence (P08397 1-361): T1 sequence (P08397 1-361)
Procedure: Octet RED96 (Forte Bio) was used for screening binding and determining the KD values for certain compounds. In the assay the target protein (WT-HMBS) was biotinylated and coupled as a layer on the optic probe. The concentration series for the tested compounds were from 3.1 to 150 μM, dissolved in PBS-P+5% DMSO.
For the analysis method of KD determination, steady state analysis was used in which the response from steady-state of the association phase was used for determining the binding curve for the analyte. KD values were calculated using sigmoidal fitting. The buffer for the analysis was selected to PBS-P+5% DMSO.

[4] = molecular target: T2, WT-HMBS; experiment: DSF thermal upshift (ΔTm) of HMBS; type: binding; conditions: Table 3, average compound concentration 122 μM (2% DMSO)
Procedure: Compounds BG-2, BG-3 and BG-4 were tested on recombinant WT-HMBS using DSF and tryptic proteolysis.

[5] = molecular target: T2, WT-HMBS; experiment: Limited proteolysis by trypsin; type: biochemical; conditions: Table 3; 84 μM compound, 2% DMSO
Procedure: Limited proteolysis by trypsin was performed at 37° C. in 20 mM HEPES, 150 mM NaCl, 2% DMSO, pH 8.2, with 0.15 μg/μl HMBS in the absence (DMSO-control) or presence of 84 μM compound and 2% DMSO. The proteolysis was initiated by adding 1 μg/ml TPCK-treated trypsin (Sigma-Aldrich). After 30 min, aliquots were removed and transferred to Laemmli loading buffer containing 2 μg/ml soybean trypsin inhibitor. Samples resolved by electrophoresis with 10% Mini-Protean® TGX™ gels (Bio-Rad Laboratories, Inc.) were analyzed using the Image Lab™ software (Bio-Rad Laboratories, Inc.). The unpaired t-test (two tailed) was performed using GraphPad Prism.
Limited tryptic proteolysis was also applied to compound BG-1. Proteolysis of WT-HMBS provided three major bands with relative content 34.5±0.3%, 14.7±0.8% and 50.9±0.5%, corresponding to remaining full-length HMBS (˜42.5 kDa), and two fragments of ˜41.0 kDa and ˜31.5 kDa, respectively (FIG. 1). […] The effect of this compound at 84 μM on the steady-state enzyme kinetics of HMBS was then calculated (Table 2).

[6] = molecular target: T1, HMBS; experiment: Activity measurements in vitro (Example 23, TECAN plate reader); type: biochemical; conditions: 5 and 50 μM compound in 2.5% DMSO, 30 min at 37° C., compared to HMBS with DMSO only
Procedure: Activity measurements were carried out using TECAN plate reader for absorbance measurements. Activity measurements were based on measuring the light absorbance at 405 nm for determining the concentration of formed product, preuroporphyrinogen. Standard curve for measurements was measured using absorbance of known concentrations for Uroporphyrin I dihydrochloride, the cyclic derivative of preuroporphyrinogen. Two concentrations of the compound of Example 14, i.e. 5 and 50 μM in 2.5% DMSO were used. Protein was incubated 30 min in 37° C. with the compound, and mixed with MIX-buffer (50 mM HEPES pH 8, 2.5% DMSO) on Corning 96 well plate (clear bottom, half area, black). The solutions were pre-warmed to 37° C. prior to reaction. Reaction was started by adding PBG and after 5 min the reaction was stopped by adding the STOP solution (5 M HCl and 0.1% p-Benzoquinone mixed 1:1). Wells were covered and protected from light during the whole reaction.

For CN(C(=O)c1ccc(Cl)c([N+](=O)[O-])c1)c1ccccc1, the KD [1] was “mM range (no saturation with 500 μM)”.

With Cc1cccc(C)c1C(=O)c1ccc(Cl)c([N+](=O)[O-])c1 the KD [1] was “mM range (no saturation with 500 μM)”.

With O=C(c1ccncc1)c1ccc(Cl)c([N+](=O)[O-])c1 the KD [1] was “mM range (no saturation with 500 μM)”.

Cc1ccc(C(=O)c2ccc(Cl)cc2)cc1[N+](=O)[O-] gave a Kd [1] of 7 µM.

With O=C(c1ccc(Cl)cc1)c1cc([N+](=O)[O-])ccc1Cl the Kd [1] was 110 µM.

With O=C(c1ccc(Br)cc1)c1ccc(Cl)c([N+](=O)[O-])c1 the KD [1] was “mM range (no saturation with 500 μM)”.

In the case of COc1ccc(C(=O)c2ccc(Cl)c([N+](=O)[O-])c2)cc1, the Kd [1] is reported as 300 µM.

For O=C(c1ccc(Cl)c([N+](=O)[O-])c1)c1ccc(Cl)c([N+](=O)[O-])c1, the KD [1] was “mM range (no saturation with 500 μM)”.

Molecule O=C(c1ccc(Cl)c(Cl)c1)c1ccc(Cl)c([N+](=O)[O-])c1 has a Kd [1] of 140 µM.

COc1ccc(C(O)c2ccc(Cl)c([N+](=O)[O-])c2)cc1 (stereo not drawn) gave a Kd [1] of over 200 µM.

Molecule O=Cc1cc(Cc2ccccc2Cl)ccc1O has a Kd [1] of 190 µM.

Work on O=C(c1ccc(OCCN2CCCC2)cc1)c1ccc(N2CCCC2)c([N+](=O)[O-])c1 yielded a Kd [1] of over 200 µM.

For O=C(c1ccc(OC(F)(F)F)cc1)c1ccc(Cl)c(C(F)(F)F)c1, the “Soluble in DMSO (100%)” value [2] was “Yes” and the solubility [2] was 52 µM (≈ 19.2 µg/mL).

For O=Cc1cc(Cc2ccccc2Cl)cc(C(F)(F)F)c1O, the Binding [3] was “Yes”, the Kd [3] was 9.3 µM and the “Soluble in DMSO (100%)” value [2] was “Yes”. The Solubility in buffer [2] was “Yes”.

For O=Cc1cc(Cc2ccccc2)cc([N+](=O)[O-])c1O [BG-3], the ΔTm at 122 µM [4] was 6.6 °C and the “Protection against tryptic proteolysis” value [5] was “+/− (+/−, ±2%)”.

In the case of O=[N+]([O-])c1cc(Cc2ccccc2Cl)cc(CO)c1O [BG-4], the ΔTm at 122 µM [4] is reported as 4.7 °C and the “Protection against tryptic proteolysis” value [5] is reported as “+/− (+/−, ±2%)”.

For OCc1cc(Cc2ccccc2Cl)cc(C(F)(F)F)c1O [Example 14, 4-(2-chlorobenzyl)-2-(hydroxymethyl)-6-(trifluoromethyl) phenol], the “HMBS activity in presence of compound” value [6] was “activation of HMBS”.

O=Cc1cc(Cc2ccccc2Cl)cc([N+](=O)[O-])c1O [drawing 43] gave a Kd [1] of 90 µM.

In the case of O=C(c1ccccc1)c1ccc(Cl)c([N+](=O)[O-])c1 [drawing 44], the KD [1] is reported as “mM range (no”.

In the case of O=Cc1cc(Cc2ccccc2Cl)cc([N+](=O)[O-])c1O [drawing 59], the Binding [3] is reported as “Yes”, the Kd [3] is reported as 83 µM and the “Soluble in DMSO (100%)” value [2] is reported as “Yes”. The solubility [2] was 384 µM (≈ 112 µg/mL).

With OCc1cc(Cc2ccccc2Cl)cc(C(F)(F)F)c1O [drawing 62] the Binding [3] was “Yes”, the Kd [3] was 90 µM and the “Soluble in DMSO (100%)” value [2] was “Yes”. The Solubility in buffer [2] was “Yes”.
